Laboratory results: patent US20260125400A1, “TYK2 DEGRADERS AND USES THEREOF” (Kymera Therapeutics, Inc., priority 2023, published 2026)
Like-named read-outs stand apart in the source and are kept apart here.

Target: T1, TYK2 (Homo sapiens, UniProt P29597)
T1 construct: Degradation of TYK2 in cells was quantitatively measured using Meso Scale Discovery (MSD) technology; endogenous in cells; host or cells: OCI-LY10
Assay: TYK2 MSD degradation in OCI-LY10 cells
Assay type: cell-based
Conditions: 4 to 24 hours incubation; for DC50: read-out: TYK2 MSD OCI-LY10 Rel-DC50
Procedure: Example 7. TYK2 MSD Degradation
Degradation of TYK2 in cells was quantitatively measured using Meso Scale Discovery (MSD) technology. OCI-LY10 cells were seeded in 96-well plates with a density of 0.4 million cells per well in 100 μl fresh media. Compounds were then added to the assay plates with a final top concentration of 1 to 10 μM in a 1:3 dilution series with total of 9 doses. The assay plates were then incubated for 4 to 24 hours at 37° C. under […]. The assay plates were then centrifuged for 5 minutes, and the cell pellets were treated with 100 μl/well RIPA lysis buffer (Boston Bioproducts, BP-115D) with protease and phosphatase inhibitors (Roche, 05892791001 and 04906837001). To prepare MSD assay plates (MSD, L15XA), the plates were coated with the capture antibody (Santa Cruz Biotechnology, SC-5271) in PBS, at 40 μl/well. The plates were then incubated overnight at 4° C., washed 3 times with 150 μl/well TBST buffer (Cell Signaling Technology, 9997S) and blocked with 150 μl/well blocking buffer (MSD, R93BA-4). Cell lysates were then added to MSD assay plates and the plates were incubated at room temperature for 1 hour. The plates were then washed 3 times with 150 μl/well TBST buffer and 25 μl/well primary detection antibody (Cell Signaling Technology, #9312). The assay plates were then incubated at room temperature for 1 hour, washed 3 times with 150 μl/well TBST buffer, and 25 μl/well secondary detection antibody, SULFO-TAG anti-rabbit antibody (MSD, R32AB-1) were added. The assay plates were then incubated at room temperature for 1 hour, washed 3 times with 150 μl/well TB ST buffer, and 150 μl/well MSD reading buffer (MSD, R92TC-2) were added. The plates were then analyzed by an MSD reader. The data was analyzed by GraphPad Prism and the dose dependent TYK2 degradation was fit using the four-parameter inhibitor vs. response nonlinear regression.
The letter codes for TYK2 DC50 include: A (<1 nM); B (i to <10 nM); C (10 to 100 nM); D (>100 nM); and E (not tested). The letter codes for TYK2 Dmax % include: A (>90%); B (90 to >75%); C (75 to 50%); D (<50%); and E (not tested).

[1] = TYK2 degradation in OCI-LY10 cells

T1 sequence (P29597 whole entry): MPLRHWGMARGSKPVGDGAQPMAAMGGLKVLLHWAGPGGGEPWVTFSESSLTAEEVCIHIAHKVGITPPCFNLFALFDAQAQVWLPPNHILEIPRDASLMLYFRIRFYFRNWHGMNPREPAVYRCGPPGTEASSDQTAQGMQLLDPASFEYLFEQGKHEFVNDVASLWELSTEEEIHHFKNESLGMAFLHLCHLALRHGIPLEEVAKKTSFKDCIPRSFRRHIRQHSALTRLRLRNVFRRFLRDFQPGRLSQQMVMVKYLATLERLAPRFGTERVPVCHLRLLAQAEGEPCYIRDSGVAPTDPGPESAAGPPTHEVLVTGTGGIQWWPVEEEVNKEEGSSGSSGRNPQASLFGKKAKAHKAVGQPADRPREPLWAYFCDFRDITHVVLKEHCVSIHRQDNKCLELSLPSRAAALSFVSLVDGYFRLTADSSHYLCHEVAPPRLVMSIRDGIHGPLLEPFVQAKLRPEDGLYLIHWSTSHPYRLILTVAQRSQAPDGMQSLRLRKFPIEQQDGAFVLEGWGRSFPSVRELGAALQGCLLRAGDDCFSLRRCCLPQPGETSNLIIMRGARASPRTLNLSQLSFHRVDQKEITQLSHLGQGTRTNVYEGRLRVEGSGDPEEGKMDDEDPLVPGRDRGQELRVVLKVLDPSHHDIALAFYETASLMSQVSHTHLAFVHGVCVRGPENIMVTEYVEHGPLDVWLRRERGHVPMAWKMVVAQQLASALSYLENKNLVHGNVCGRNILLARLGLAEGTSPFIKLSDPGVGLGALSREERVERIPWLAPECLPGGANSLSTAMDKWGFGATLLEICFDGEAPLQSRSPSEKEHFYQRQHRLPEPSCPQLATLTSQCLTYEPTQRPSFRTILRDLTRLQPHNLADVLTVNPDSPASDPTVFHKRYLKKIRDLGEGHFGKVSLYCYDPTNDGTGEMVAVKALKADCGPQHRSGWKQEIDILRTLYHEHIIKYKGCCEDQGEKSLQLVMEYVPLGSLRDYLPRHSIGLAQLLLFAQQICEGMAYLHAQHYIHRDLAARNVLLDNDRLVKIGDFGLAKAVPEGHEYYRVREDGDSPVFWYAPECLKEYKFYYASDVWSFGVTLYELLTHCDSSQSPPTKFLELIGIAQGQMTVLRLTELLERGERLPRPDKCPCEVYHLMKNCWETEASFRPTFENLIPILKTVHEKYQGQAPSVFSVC

Compound: CNc1cc(N2CCc3c(N4CCC5(CCN(C(=O)c6ccc(Cl)c(N7CCC(=O)NC7=O)c6)CC5)CC4)cccc32)nn2c(C(=O)N[C@@H]3C[C@@H]3F)cnc12 [I-93]
- TYK2 MSD OCI-LY10 Dmax % [1]: D (D (<50%))
- DC50 [1]: < 10 nM

Compound: CNc1cc(N2CCc3c(-c4ccc(CN5CC6(CCN(C(=O)c7ccc(Cl)c(N8CCC(=O)NC8=O)c7)CC6)C5)cc4)cccc32)nn2c(C(=O)N[C@@H]3C[C@@H]3F)cnc12 [I-73]
- TYK2 MSD OCI-LY10 Dmax % [1]: C (C (75 to 50%))
- DC50 [1]: < 10 nM

Compound: CNc1cc(N2CCc3c(-c4ccc(CN5CC6(CCC(N(C)c7ccc(Cl)c(N8CCC(=O)NC8=O)c7)CC6)C5)cn4)cccc32)nn2c(C(=O)N[C@@H]3CC[C@H]3OC)cnc12 [I-752]
- TYK2 MSD OCI-LY10 Dmax % (OCI-LY10 cells): B (B (90 to >75%))
- DC50 (OCI-LY10 cells): < 10 nM

Compound: CNc1cc(N2CCc3c(-c4ccc(CN5CCC(N6CC7(CCN(c8cccc9c8n(C)c(=O)n9C8CCC(=O)NC8=O)CC7)C6)C(F)(F)C5)cn4)cccc32)nn2c(C(=O)N[C@@H]3C[C@@H]3F)cnc12 (stereo partly drawn) [I-279]
- TYK2 MSD OCI-LY10 Dmax % [1]: B (B (90 to >75%))
- DC50 [1]: < 10 nM

Compound: CNc1cc(N2CCc3c(-c4ccc(CN5CC6(CCN(C(=O)c7ccc(C)c(N8CCC(=O)NC8=O)c7)CC6(F)F)C5)cn4)cc(F)cc32)nn2c(C(=O)NC3CC3F)cnc12 (stereo not drawn) [I-357]
- TYK2 MSD OCI-LY10 Dmax % [1]: A (A (>90%))
- DC50 [1]: < 1 nM

Compound: CNc1cc(N2CCc3c(-c4ccc(CN5CCC(N6CCN(c7ccc8c(c7)n(C)c(=O)n8C7CCC(=O)NC7=O)CC6)CC5)cn4)cccc32)nn2c(C(=O)N[C@@H]3C[C@@H]3F)cnc12 (stereo partly drawn) [I-1]
- TYK2 MSD OCI-LY10 Dmax % [1]: B (B (90 to >75%))
- DC50 [1]: < 1 nM

Compound: CNc1cc(N2CCc3c(N4CCN(CCC5CCN(c6ccc7c(c6)n(C)c(=O)n7C6CCC(=O)NC6=O)CC5)CC4)cccc32)nn2c(C(=O)NC3CC3)cnc12 (stereo not drawn) [I-40]
- TYK2 MSD OCI-LY10 Dmax % [1]: D (D (<50%))
- DC50 [1]: > 100 nM

Compound: CNc1cc(N2CCc3c(CN4CCC(N5CCC6(CCN(C(=O)c7ccc(Cl)c(N8CCC(=O)NC8=O)c7)CC6)CC5)C(F)(F)C4)cc(F)cc32)nn2c(C(=O)N[C@@H]3C[C@@H]3F)cnc12 (stereo partly drawn) [I-808]
- TYK2 MSD OCI-LY10 Dmax % [1]: A (A (>90%))
- DC50 [1]: < 1 nM

Compound: CNc1cc(N2CCc3c(CN4CCC(N5CCC6(CCN(C(=O)c7cc(N8CCC(=O)NC8=O)c(Cl)c(C)n7)CC6)CC5)C(F)(F)C4)cccc32)nn2c(C(=O)N[C@@H]3CC[C@H]3OC)cnc12 (stereo partly drawn) [I-1157]
- TYK2 MSD OCI-LY10 Dmax % [1]: A (A (>90%))
- DC50 [1]: < 1 nM

Compound: CNc1cc(N2CCc3c(N4CC(CN5CCC6(CCN(C(=O)c7ccc(Cl)c(N8CCC(=O)NC8=O)c7)CC6)C(F)(F)C5)C4)cccc32)nn2c(C(=O)N[C@@H]3C[C@@H]3F)cnc12 [I-783]
- TYK2 MSD OCI-LY10 Dmax % (OCI-LY10 cells): B (B (90 to >75%))
- DC50 (OCI-LY10 cells): < 10 nM

Compound: CNc1cc(N2CCc3c([C@H](C)N4CC[C@H](N5CCC6(CCN(C(=O)c7cc(C)c(Cl)c(N8CCC(=O)NC8=O)c7)CC6)CC5)C(F)(F)C4)cccc32)nn2c(C(=O)N[C@@H]3CC[C@H]3OC)cnc12 [I-1127]
- TYK2 MSD OCI-LY10 Dmax % [1]: A (A (>90%))
- DC50 [1]: < 1 nM

Compound: CNc1cc(N2CCc3c(N4CCN(CC5CC6(CCN(C(=O)c7ccc(Cl)c(N8CCC(=O)NC8=O)c7)CC6)C5)CC4)cccc32)nn2c(C(=O)NC3CC3)cnc12 [I-32]
- TYK2 MSD OCI-LY10 Dmax % [1]: C (C (75 to 50%))
- DC50 [1]: < 10 nM

Compound: CNc1cc(N2CCc3c(-c4ncc(CN5CC6(CCN(C(=O)c7cc(OC)c(C)c(N8CCC(=O)NC8=O)c7)CC6(F)F)C5)cc4F)cccc32)nn2c(C(=O)N[C@@H]3CC[C@H]3OC)cnc12 [I-1137]
- TYK2 MSD OCI-LY10 Dmax % [1]: A (A (>90%))
- DC50 [1]: < 1 nM

Compound: CNc1cc(N2CC3(CCN(CCc4cccc5c4n(C)c(=O)n5C4CCC(=O)NC4=O)CC3)c3ccccc32)nn2c(C(=O)NC3CC3)cnc12 (stereo not drawn) [I-41]
- TYK2 MSD OCI-LY10 Dmax % [1]: D (D (<50%))
- DC50 [1]: > 100 nM

Compound: CNc1cc(N2CCc3c(-c4ncc(CN5CC6(CCN(C(=O)c7cc(C)c(C)c(N8CCC(=O)NC8=O)c7)CC6(F)F)C5)cc4F)cccc32)nn2c(C(=O)N[C@@H]3C[C@@H]3F)cnc12 [I-989]
- TYK2 MSD OCI-LY10 Dmax % [1]: A (A (>90%))
- DC50 [1]: < 1 nM

Compound: CNc1cc(N2CCc3c(CN4CCC(N5CCC6(CCN(C(=O)c7cc(N8CCC(=O)NC8=O)c(C)cc7F)CC6)CC5)C(F)(F)C4)cccc32)nn2c(C(=O)N[C@@H]3C[C@@H]3F)cnc12 (stereo partly drawn) [I-853]
- TYK2 MSD OCI-LY10 Dmax % [1]: A (A (>90%))
- DC50 [1]: < 1 nM

Compound: CCNC(=O)c1nnc(Nc2ccc(CN3CC4(CCN(c5cccc6c5n(C)c(=O)n6C5CCC(=O)NC5=O)CC4(F)F)C3)cn2)cc1Nc1cccc(F)c1OC (stereo not drawn) [I-92]
- TYK2 MSD OCI-LY10 Dmax % [1]: C (C (75 to 50%))
- DC50 [1]: 10 to 100 nM

Compound: CNc1cc(N2CCc3c(N4CCN(CC5CCC6(CC5)CCN(c5ccc7c(c5)n(C)c(=O)n7C5CCC(=O)NC5=O)CC6)CC4)cccc32)nn2c(C(=O)NC3CC3)cnc12 (stereo not drawn) [I-39]
- TYK2 MSD OCI-LY10 Dmax % [1]: D (D (<50%))
- DC50 [1]: < 10 nM

Compound: CNc1cc(N2CCc3c(-c4ccc(CN5CCC6(CC5)CCN(c5ccc(N7CCC(=O)NC7=O)c(Cl)c5)CC6)cn4)cccc32)nn2c(C(=O)N[C@@H]3C[C@@H]3F)cnc12 [I-74]
- TYK2 MSD OCI-LY10 Dmax % [1]: D (D (<50%))
- DC50 [1]: < 10 nM

Compound: CNc1cc(N2CCc3c(C4CCN(CC5CC6(CCN(C(=O)c7ccc(Cl)c(N8CCC(=O)NC8=O)c7)CC6)C5)CC4)cccc32)nn2c(C(=O)NC3CC3)cnc12 [I-60]
- TYK2 MSD OCI-LY10 Dmax % [1]: C (C (75 to 50%))
- DC50 [1]: < 10 nM

Compound: CNc1cc(N2CCc3c(CN4CCC(N5CCC6(CCN(C(=O)c7cc(C)c(Cl)c(N8CCC(=O)NC8=O)c7)CC6)CC5)C(F)(F)C4)cccc32)nn2c(C(=O)N[C@@H]3C[C@@H]3F)cnc12 (stereo partly drawn) [I-713]
- TYK2 MSD OCI-LY10 Dmax % (OCI-LY10 cells): B (B (90 to >75%))
- DC50 (OCI-LY10 cells): < 10 nM

Compound: CNc1cc(N2CCc3c(CN4CC[C@@H](N5CCC6(CC5)CN(C(=O)c5cc(Cl)c(C)c(N7CCC(=O)NC7=O)c5)C6)C(F)(F)C4)cccc32)nn2c(C(=O)N[C@@H]3CC[C@H]3OC)cnc12 [I-1141]
- TYK2 MSD OCI-LY10 Dmax % [1]: A (A (>90%))
- DC50 [1]: < 1 nM

Compound: CNc1cc(N2CCc3c(-c4ccc(CN5CC6(CCN(C(=O)c7ccc(Cl)c(N8CCC(=O)NC8=O)c7)CC6(F)F)C5)cn4)cc(C)cc32)nn2c(C(=O)N[C@@H]3C[C@@H]3F)cnc12 [I-852]
- TYK2 MSD OCI-LY10 Dmax % [1]: B (B (90 to >75%))
- DC50 [1]: < 10 nM

Compound: CNc1cc(N2CCc3c(-c4ccc(CN5CCN(CCC6CCN(c7ccc(Cl)c(C8CCC(=O)NC8=O)c7)CC6)CC5)cn4)cccc32)nn2c(C(=O)NC3CC3F)cnc12 (mixture of isomers) [I-438]
- TYK2 MSD OCI-LY10 Dmax % (OCI-LY10 cells): C (C (75 to 50%))
- DC50 (OCI-LY10 cells): < 10 nM

Compound: CNc1cc(N2CCc3c(CN4CC[C@@H](N5CCC6(CCN(C(=O)c7ccc(Cl)c(N8CCC(=O)NC8=O)c7)CC6)CC5)C(F)(F)C4)cccc32)nn2c(C(=O)N[C@@H]3C[C@@H]3F)cnc12 [I-714]
- TYK2 MSD OCI-LY10 Dmax % (OCI-LY10 cells): B (B (90 to >75%))
- DC50 (OCI-LY10 cells): < 1 nM

Compound: CNc1cc(N2CCc3c(-c4ccc(CN5CCC6(CC5)CC(COc5ccc(C7CCC(=O)NC7=O)c(Cl)c5)C6)cn4)cccc32)nn2c(C(=O)N[C@@H]3C[C@@H]3F)cnc12 (stereo partly drawn) [I-460]
- TYK2 MSD OCI-LY10 Dmax % (OCI-LY10 cells): D (D (<50%))
- DC50 (OCI-LY10 cells): > 100 nM

Compound: CNc1cc(N2CCc3c(CN4CCC(CN5CCC6(CC5)CCN(C(=O)c5ccc(Cl)c(N7CCC(=O)NC7=O)c5)CC6)C(F)(F)C4)cccc32)nn2c(C(=O)N[C@@H]3CC[C@H]3OC)cnc12 (stereo partly drawn) [I-1074, 6-(4-{[4-({9-[14-chloro-3-(2,4-dioxo-1,3-diazinan-1-yl)benzoyl]-3,9-diazaspiro[5.5]undecan-3-yl}methyl)-3,3-difluoropiperidin-1-yl]methyl}-2,3-dihydroindol-1-yl)-N-[(1R,2R)-2-methoxycyclobutyl]-8-(methylamino)imidazo[1,2-b]pyridazine-3-carboxamide]
- Dmax [1]: > 90%
- DC50 [1]: < 1 nM
